ChEMBL document CHEMBL5291721, “A preclinical secondary pharmacology resource illuminates target-adverse drug reaction associations of marketed drugs” (Nat Commun, 2023)

Columns and labels:
[1] = molecular target: T1, Muscarinic acetylcholine receptor M2 (Homo sapiens, UniProt P08172)
T1 sequence (P08172 whole entry): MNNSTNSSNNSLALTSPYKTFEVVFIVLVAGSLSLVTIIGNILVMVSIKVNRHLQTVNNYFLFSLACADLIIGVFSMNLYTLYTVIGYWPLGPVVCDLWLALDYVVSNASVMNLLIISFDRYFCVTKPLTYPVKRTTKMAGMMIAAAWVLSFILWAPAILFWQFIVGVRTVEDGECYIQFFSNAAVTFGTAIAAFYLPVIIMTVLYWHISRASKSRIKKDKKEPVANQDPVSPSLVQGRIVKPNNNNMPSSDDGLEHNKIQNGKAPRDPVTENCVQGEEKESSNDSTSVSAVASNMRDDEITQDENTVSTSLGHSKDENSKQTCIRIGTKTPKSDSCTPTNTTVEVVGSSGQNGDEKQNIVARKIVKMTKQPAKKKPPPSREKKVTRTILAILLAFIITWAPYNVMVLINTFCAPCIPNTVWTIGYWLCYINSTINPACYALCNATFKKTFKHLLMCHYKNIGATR

[2] = molecular target: T1, Muscarinic acetylcholine receptor M2; remark: listed apart in the source
[3] = molecular target: Sodium channel protein type 5 subunit alpha (Homo sapiens, UniProt Q14524); assay type: functional, cell-based
Sequence of Sodium channel protein type 5 subunit alpha (Q14524 whole entry): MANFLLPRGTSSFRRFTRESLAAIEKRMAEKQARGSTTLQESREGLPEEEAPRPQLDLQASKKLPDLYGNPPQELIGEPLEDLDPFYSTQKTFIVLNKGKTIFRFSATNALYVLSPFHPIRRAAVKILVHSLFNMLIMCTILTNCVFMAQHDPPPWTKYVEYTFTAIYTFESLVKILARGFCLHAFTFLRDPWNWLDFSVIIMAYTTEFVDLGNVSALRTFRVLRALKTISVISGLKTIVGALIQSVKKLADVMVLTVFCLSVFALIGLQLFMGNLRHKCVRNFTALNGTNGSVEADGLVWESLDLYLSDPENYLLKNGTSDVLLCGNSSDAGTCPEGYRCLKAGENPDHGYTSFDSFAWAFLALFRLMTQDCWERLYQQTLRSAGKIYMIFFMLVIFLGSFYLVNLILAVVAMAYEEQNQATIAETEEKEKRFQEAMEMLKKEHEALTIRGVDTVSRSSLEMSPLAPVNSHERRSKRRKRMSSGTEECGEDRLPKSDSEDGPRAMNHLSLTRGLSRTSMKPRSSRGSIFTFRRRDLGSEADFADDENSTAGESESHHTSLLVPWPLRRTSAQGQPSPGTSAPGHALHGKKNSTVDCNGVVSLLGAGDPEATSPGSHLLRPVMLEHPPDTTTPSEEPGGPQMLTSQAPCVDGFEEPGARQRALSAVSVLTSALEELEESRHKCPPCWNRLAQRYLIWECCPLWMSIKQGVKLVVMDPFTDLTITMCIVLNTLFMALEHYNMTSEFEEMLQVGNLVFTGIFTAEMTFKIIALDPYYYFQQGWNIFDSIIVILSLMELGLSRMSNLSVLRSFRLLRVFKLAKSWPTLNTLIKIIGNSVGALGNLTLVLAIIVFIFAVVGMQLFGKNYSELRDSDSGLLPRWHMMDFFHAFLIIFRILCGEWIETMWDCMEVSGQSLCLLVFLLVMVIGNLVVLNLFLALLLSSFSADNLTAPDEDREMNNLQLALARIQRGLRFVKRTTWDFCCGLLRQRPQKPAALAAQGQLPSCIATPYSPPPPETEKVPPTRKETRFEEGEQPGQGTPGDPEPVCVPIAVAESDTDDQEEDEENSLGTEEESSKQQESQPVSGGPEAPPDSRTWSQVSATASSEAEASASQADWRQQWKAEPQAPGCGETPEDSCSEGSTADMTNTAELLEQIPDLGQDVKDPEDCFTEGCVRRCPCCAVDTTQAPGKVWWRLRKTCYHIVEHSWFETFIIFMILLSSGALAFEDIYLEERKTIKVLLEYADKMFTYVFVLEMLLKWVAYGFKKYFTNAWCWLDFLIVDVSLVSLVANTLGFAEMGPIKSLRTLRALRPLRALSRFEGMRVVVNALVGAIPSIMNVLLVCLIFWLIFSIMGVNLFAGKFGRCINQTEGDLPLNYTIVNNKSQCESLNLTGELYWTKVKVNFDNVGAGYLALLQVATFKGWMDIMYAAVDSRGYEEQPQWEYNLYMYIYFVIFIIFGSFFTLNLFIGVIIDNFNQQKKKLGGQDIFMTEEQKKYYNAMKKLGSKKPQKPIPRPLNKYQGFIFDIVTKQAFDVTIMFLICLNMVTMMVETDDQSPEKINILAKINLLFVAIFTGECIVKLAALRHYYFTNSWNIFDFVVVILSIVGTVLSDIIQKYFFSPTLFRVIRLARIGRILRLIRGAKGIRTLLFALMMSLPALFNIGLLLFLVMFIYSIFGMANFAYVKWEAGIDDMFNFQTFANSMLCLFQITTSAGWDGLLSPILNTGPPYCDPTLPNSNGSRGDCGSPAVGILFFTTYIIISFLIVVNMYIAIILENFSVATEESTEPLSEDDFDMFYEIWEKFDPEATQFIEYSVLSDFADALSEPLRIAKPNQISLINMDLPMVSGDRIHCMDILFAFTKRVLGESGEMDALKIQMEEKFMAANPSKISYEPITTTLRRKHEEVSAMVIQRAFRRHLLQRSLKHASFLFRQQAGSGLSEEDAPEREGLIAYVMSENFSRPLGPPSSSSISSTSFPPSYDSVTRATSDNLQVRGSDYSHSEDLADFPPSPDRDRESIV

B1 bradykinin receptor = molecular target: T2, B1 bradykinin receptor (Homo sapiens, UniProt P46663)
T2 sequence (P46663 whole entry): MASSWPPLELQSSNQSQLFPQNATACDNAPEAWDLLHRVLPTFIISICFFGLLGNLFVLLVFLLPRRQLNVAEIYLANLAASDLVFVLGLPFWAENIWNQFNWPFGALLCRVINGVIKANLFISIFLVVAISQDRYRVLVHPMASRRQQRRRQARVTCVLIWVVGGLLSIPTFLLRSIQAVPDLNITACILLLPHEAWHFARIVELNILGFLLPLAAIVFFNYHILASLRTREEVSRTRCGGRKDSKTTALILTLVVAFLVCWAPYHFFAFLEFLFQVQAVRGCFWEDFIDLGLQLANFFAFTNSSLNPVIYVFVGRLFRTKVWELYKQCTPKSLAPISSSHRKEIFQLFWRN

[4] = molecular target: T3, Alpha-1A adrenergic receptor (Homo sapiens, UniProt P35348)
T3 sequence (P35348 whole entry): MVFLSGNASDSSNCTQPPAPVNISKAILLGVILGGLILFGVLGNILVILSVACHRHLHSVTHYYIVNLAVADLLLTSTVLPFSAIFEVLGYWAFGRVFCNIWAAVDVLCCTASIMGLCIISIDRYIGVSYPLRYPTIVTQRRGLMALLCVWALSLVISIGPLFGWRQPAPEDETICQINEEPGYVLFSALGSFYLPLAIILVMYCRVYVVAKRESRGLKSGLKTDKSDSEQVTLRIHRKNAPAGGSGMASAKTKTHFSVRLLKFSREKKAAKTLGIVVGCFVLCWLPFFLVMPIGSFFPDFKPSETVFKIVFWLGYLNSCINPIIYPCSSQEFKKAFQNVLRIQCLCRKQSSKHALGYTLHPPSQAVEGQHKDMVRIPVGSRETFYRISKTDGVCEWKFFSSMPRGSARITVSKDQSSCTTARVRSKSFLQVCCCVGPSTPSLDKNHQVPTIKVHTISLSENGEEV

[5] = molecular target: T4, Neuropeptide Y receptor type 2 (Homo sapiens, UniProt P49146)
T4 sequence (P49146 whole entry): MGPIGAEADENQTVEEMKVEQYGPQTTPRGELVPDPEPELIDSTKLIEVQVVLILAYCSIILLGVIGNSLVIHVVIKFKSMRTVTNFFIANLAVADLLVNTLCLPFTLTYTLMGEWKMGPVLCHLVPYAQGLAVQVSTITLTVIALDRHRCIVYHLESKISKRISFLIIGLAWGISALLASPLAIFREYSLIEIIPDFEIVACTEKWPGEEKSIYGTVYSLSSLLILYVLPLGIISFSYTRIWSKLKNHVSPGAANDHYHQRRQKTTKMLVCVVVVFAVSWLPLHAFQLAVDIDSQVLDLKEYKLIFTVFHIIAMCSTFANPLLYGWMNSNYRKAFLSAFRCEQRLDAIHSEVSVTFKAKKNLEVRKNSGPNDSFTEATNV

Substance-P receptor = Substance-P receptor (Homo sapiens, UniProt P25103)
Sequence of Substance-P receptor (P25103 whole entry): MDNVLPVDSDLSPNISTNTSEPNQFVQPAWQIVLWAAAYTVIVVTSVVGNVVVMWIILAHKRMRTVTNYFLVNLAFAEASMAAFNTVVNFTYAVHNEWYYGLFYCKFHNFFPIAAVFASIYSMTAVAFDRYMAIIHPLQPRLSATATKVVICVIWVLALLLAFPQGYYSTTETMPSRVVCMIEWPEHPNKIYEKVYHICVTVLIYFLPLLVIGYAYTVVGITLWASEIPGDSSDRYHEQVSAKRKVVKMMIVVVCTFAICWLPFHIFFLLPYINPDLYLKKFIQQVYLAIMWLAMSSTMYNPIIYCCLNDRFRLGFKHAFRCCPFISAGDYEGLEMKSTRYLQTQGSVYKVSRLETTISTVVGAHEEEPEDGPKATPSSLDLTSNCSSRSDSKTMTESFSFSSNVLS

[6] = molecular target: T5, Gastric inhibitory polypeptide receptor (Homo sapiens, UniProt P48546)
T5 sequence (P48546 whole entry): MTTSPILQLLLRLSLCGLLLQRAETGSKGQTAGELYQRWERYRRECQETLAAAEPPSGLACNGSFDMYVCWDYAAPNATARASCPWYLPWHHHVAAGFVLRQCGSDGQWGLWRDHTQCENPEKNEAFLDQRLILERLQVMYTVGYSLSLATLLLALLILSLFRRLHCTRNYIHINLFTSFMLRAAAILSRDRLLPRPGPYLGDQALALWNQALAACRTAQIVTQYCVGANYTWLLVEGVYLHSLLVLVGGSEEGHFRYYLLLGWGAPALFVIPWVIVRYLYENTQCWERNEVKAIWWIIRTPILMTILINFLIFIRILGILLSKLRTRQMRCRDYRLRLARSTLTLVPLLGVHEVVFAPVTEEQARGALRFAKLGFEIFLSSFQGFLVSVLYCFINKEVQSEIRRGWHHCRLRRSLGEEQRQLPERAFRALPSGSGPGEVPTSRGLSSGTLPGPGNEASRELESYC

[7] = molecular target: T6, Corticotropin-releasing factor receptor 1 (Homo sapiens, UniProt P34998)
T6 sequence (P34998 whole entry): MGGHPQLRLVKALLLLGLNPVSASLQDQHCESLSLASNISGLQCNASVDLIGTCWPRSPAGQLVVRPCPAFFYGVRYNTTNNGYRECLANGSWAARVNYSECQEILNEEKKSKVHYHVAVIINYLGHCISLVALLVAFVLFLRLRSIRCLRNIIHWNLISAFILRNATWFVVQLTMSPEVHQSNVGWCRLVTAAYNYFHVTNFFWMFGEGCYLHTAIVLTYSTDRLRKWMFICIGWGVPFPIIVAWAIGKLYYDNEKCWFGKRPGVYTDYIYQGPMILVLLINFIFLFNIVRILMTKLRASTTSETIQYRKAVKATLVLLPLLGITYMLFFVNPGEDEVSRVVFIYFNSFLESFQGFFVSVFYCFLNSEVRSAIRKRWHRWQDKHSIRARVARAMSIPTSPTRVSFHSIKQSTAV
Also: assay procedure not described here.

| Compound | AC50 [1] [µM] | AC50 [2] [µM] | AC50 [3] [µM] | AC50 (B1 bradykinin receptor) [µM] | AC50 [4] [µM] | AC50 [5] [µM] | AC50 (Substance-P receptor) [µM] | AC50 [6] [µM] | AC50 [7] [µM] |
| --- | --- | --- | --- | --- | --- | --- | --- | --- | --- |
| CO[C@]12C[C@@H](COC(=O)c3cncc(Br)c3)CN(C)[C@@H]1Cc1cn(C)c3cccc2c13 [NICERGOLINE] | 7.93 | – | – | – | – | – | – | – | – |
| CC/C(=C(\c1ccccc1)c1ccc(OCCN(C)C)cc1)c1ccccc1 [TAMOXIFEN] | – | > 10 | – | – | – | – | – | – | – |
| THIMEROSAL | > 30 | – | > 50 | – | – | – | – | – | – |
| Clc1ccccc1C(c1ccccc1)(c1ccccc1)n1ccnc1 [CLOTRIMAZOLE] | – | > 10 | – | – | – | – | – | – | – |
| COc1cccc(C2(O)CCCCC2CN(C)C)c1 (stereo not drawn) [TRAMADOL] | – | – | – | > 30 | > 10 | > 30 | > 10 | > 30 | > 30 |
| Cc1c(OCC(F)(F)F)ccnc1C[S+]([O-])c1nc2ccccc2[nH]1 (stereo not drawn) [LANSOPRAZOLE] | – | – | > 30 | > 30 | > 10 | > 30 | 17.2 | > 30 | > 30 |
